Reference: BindingDB's records for doi:10.1016/s0960-894x(01)00594-7 (The University of Newcastle, 2001)

Molecular target: Protein phosphatase 1 catalytic subunit (PPP1CA)
Experiment: Inhibitory concentration against protein phosphatase 1 (PP1) was determined

IC50 [µM] | SMILES
> 1000 | O=C(O)[C@@H](Cc1ccccc1)N1C(=O)[C@@H]2[C@H](C1=O)[C@H]1CC[C@@H]2O1 [(R)-2-((1S,2R,6S,7R)-3,5-Dioxo-10-oxa-4-aza-tricyclo[5.2.1.0*2,6*]dec-4-yl)-3-phenyl-propionic acid]
95 | O=C(O)CC[C@H](C(=O)O)N1C(=O)[C@@H]2[C@H](C1=O)[C@H]1CC[C@@H]2O1 [(R)-2-((1S,2R,6S,7R)-3,5-Dioxo-10-oxa-4-aza-tricyclo[5.2.1.0*2,6*]dec-4-yl)-pentanedioic acid]
> 1000 | O=C(O)[C@H](Cc1ccccc1)N1C(=O)[C@@H]2[C@H](C1=O)[C@H]1CC[C@@H]2O1 [(S)-2-((1S,2R,6S,7R)-3,5-Dioxo-10-oxa-4-aza-tricyclo[5.2.1.0*2,6*]dec-4-yl)-3-phenyl-propionic acid]

SMILES | IC50 [µM]
CC(C)C[C@H](C(=O)O)N1C(=O)[C@@H]2[C@H](C1=O)[C@H]1CC[C@@H]2O1 [(R)-2-((1S,2R,6S,7R)-3,5-Dioxo-10-oxa-4-aza-tricyclo[5.2.1.0*2,6*]dec-4-yl)-4-methyl-pentanoic acid] | > 1000
CC(C)C[C@@H](C(=O)O)N1C(=O)[C@@H]2[C@H](C1=O)[C@H]1CC[C@@H]2O1 [(S)-2-((1S,2R,6S,7R)-3,5-Dioxo-10-oxa-4-aza-tricyclo[5.2.1.0*2,6*]dec-4-yl)-4-methyl-pentanoic acid] | > 1000
